Data on three molecules can be found in publication PMC5365648, “Pharmacokinetics of the Novel Echinocandin CD101 in Multiple Animal Species” (Antimicrobial Agents and Chemotherapy, 2017).

Series [1] is described as follows: Chimpanzee pharmacokinetics, i.v. infusion. It is filed as in vivo, chimpanzees. The note with it: in vivo, iv, female chimpanzees, single 1 mg/kg i.v. infusion (1 h), plasma, LC-MS/MS, noncompartmental, n = 2. The method, then: A single 1-mg/kg dose of CD101 or anidulafungin was administered by i.v. infusion (1 h) to female chimpanzees (n = 2/group), and blood samples (via peripheral vein) were drawn for plasma processing at the midpoint of infusion, at the end of infusion, at 2, 4, 8, 12, 24, 48, and 72 h postdose, and on days 5, 7, and 10 postdose.
(§1) For each of the pharmacokinetic studies, whole-blood samples (K3EDTA as anticoagulant) were collected and centrifuged within 30 min of collection. The resulting plasma was harvested and stored at −20°C until analysis. Tissue samples were homogenized by a bead-based homogenizer following the addition of deionized water to excised tissue in a 2:1 (vol/wt) ratio and stored at −20°C until analysis. Prior to analysis, plasma or homogenized tissue samples were quenched with acetonitrile (3:1, acetonitrile-plasma or tissue ratio) containing an appropriate internal standard (isotopically labeled d9-CD101 [mouse and rat] or a structural analog [dog, monkey, and chimpanzee]). Plasma and tissue homogenate concentrations (quantified against calibration standards processed the same way) were determined by reverse-phase, gradient liquid chromatography with tandem mass spectrometric detection (LC-MS/MS) using an AB-SCIEX API 3200Q/4000 mass spectrometry system. Calibration standard ranges were the following: 0.400 (lower limit of quantitation, [LLOQ]) to 200 μg/ml (CD101, mouse), 0.040 (LLOQ) to 10 μg/ml (anidulafungin, mouse), 0.002 (LLOQ) to 10 μg/ml (CD101, rat), 0.005 (LLOQ) to 10 μg/ml (anidulafungin, rat), 0.050 (LLOQ) to 10 μg/ml (CD101, dog), 0.020 (LLOQ) to 10 μg/ml (anidulafungin, dog), 0.010 (LLOQ) to 10 μg/ml (CD101, monkey), 0.001 (LLOQ) to 10 μg/ml (anidulafungin, monkey), 0.015 (LLOQ) to 10 μg/ml (CD101, chimpanzee), and 0.015 (LLOQ) to 10 μg/ml (anidulafungin, chimpanzee). When necessary, dilutions with blank matrix were made for samples that quantified above the upper limit of quantitation. The methods used in the analysis were qualified as fit for purpose: calibration standards were matrix matched with the exception that human plasma calibration standards were used to analyze chimpanzee plasma samples due to the rarity of blank chimpanzee plasma, and, for each analytical batch, triplicate calibration standards were included at the beginning, approximately in the middle, and at the end of the batch. Following analysis, quantitation was carried out by a calibration curve comprising the analyte/internal standard area ratio versus concentration. Analytical batch acceptance followed the general guidance that triplicate standards/quality controls be within ±20% for accuracy (percentage of nominal concentration) and ≤20% for precision (percent coefficient of variation).
(§2) Pharmacokinetic parameters were calculated by noncompartmental analysis using Phoenix WinNonlin (version 6.3; Pharsight, Mountain View, CA) from either individual or mean (mouse) concentration-time profiles. An unpaired t test was used to compare mean exposures from male and female rats.

For series [2] the following is noted: for CD101 the effective half-life (covers the majority of the AUC), ref [10]; cited from earlier work. The protocol:
The half-life of CD101 in human is about 3-fold longer (about 90 h) than that of anidulafungin (about 30 h) ([10]). It should be noted that 90 h is the effective half-life of CD101 (i.e., the half-life that covers the majority of the AUC), with a longer, later-phase half-life evident at lower concentration ...

Series [3] is described as follows: Cynomolgus monkey pharmacokinetics, i.v. bolus. The note with it: in vivo, iv, cynomolgus monkeys, single 2.8 mg/kg slow i.v. bolus, plasma, LC-MS/MS, n = 3. Details: species or system cynomolgus monkeys. The protocol:
A single dose of 2.13 mg/kg CD101 or 2.8 mg/kg anidulafungin was administered by slow i.v. bolus (∼10 min) to cynomolgus monkeys (n = 3/group), and blood samples (via peripheral vein) were drawn for plasma processing at 0.167, 0.5, 1, 3, 8, 12, 24, 48, and 72 h postdose.
as §1, §2

The conditions of series [4]: ref [13]; cited from earlier work. An excerpt: In the case of brain concentrations, there was little difference across all the collection intervals. Given the relatively low concentrations and small differences across times, measured concentrations may reflect contamination from residual whole blood during the collec ...
The conditions of series [5]: radiolabeled drug, bile duct-cannulated rats, ref [14], cited from earlier work. The protocol: In that study, which utilized radiolabeled anidulafungin in bile duct-cannulated rats, 94.8% of the radioactive dose was accounted for through 168 h (or 7 days). […] In a similar study of CD101 conducted with nonradiolabeled material, no biotransformati ...
Series [6] can be described thus: Mouse pharmacokinetics, i.v. bolus. The note with it: in vivo, iv, male ICR (CD-1) mice, single 1 mg/kg slow i.v. bolus, plasma, LC-MS/MS, noncompartmental from mean profile, n = 3/time point. The method, then:
A single 1-mg/kg dose of CD101 or anidulafungin was administered by slow i.v. bolus (∼2 min) to male ICR (CD-1) mice (n = 3/group/time point). Blood samples (via cardiac puncture) were collected for plasma processing predose and at 0.083 (5 min), 0.5, 1, 4, 8, 24, 48, and 72 h postdose. PK profiles were generated based on mean results from the three animals sampled at each time point. In another study, a single 1-, 4-, or 16-mg/kg dose of CD101 was administered by i.p. injection to female ICR (CD-1) mice (n = 3/time point/dose), and blood samples (via cardiac puncture) were drawn for plasma processing at 1, 3, 6, 12, 24, 48, 72, and 96 h postdose.
as §1, §2

Starred links: 1 amine or outer side, 2 acyl side, 3 side chain; linkers in the order of their positions; H or OH if unused. Positions of bridges follow the written chain, without caps; N, C: chain ends. Non-standard residues stand in square brackets, D forms with d. Residues, ends and D or L forms follow the SMILES beside them. *: point of attachment. pTerphenylCO(4''-OnC5H11) = CCCCCOc1ccc(-c2ccc(-c3ccc(C(=O)*)cc3)cc2)cc1; Orn(4R-OH,5R-OH) = O=C([C@H](C[C@@H](O)[C@@H](O)N[*:3])N[*:1])[*:2]; hTyr(3S-OH,4S-OH) = N[C@H](C(=O)O)[C@H](O)[C@@H](O)c1ccc(O)cc1; Pro(3S-OH,4S-Me) = C[C@H]1CN[C@H](C(=O)O)[C@H]1O; Hyp = O=C(O)[C@@H]1C[C@@H](O)CN1

In general, half-life refers to the time in which the quantity being followed falls by half. Broadly, the clearance is the rate of elimination divided by the concentration. In the case of `CCCCCOc1ccc(-c2ccc(-c3ccc(C(=O)N[C@H]4C[C@@H](O)[C@@H](O)NC(=O)[C@@H]5[C@@H](O)[C@@H](C)CN5C(=O)[C@H]([C@@H](C)O)NC(=O)[C@H]([C@H](O)[C@@H](O)c5ccc(O)cc5)NC(=O)[C@@H]5C[C@@H](O)CN5C(=O)[C@H]([C@@H](C)O)NC4=O)cc3)cc2)cc1` [anidulafungin] ({pTerphenylCO(4''-OnC5H11)}-[Orn(4R-OH,5R-OH)]T[Hyp][hTyr(3S-OH,4S-OH)]T[Pro(3S-OH,4S-Me)]; lactam 1-C), the half-life in series [1] was 30 h. Besides, the clearance in series [1] (read-out: CL (clearance)) is 0.42 mL/min/kg. Besides, the half-life in human entry in series [2] was “about 30 h”. In series [3], this molecule had a half-life of 8 h. In addition, in series [4], the “Tissue/plasma AUC ratio, kidney” value is 10.7; the “Tissue/plasma AUC ratio, liver” value is 12.4; the “Tissue/plasma AUC ratio, lung” value was 10.4. The “radioactive dose accounted for” value in series [5] (through 168 h (7 days)) is given as 94.8%. In series [5] (through 168 h), the “drug-derived radioactivity recovered in bile, % of dose” value is recorded as 33.9%; the “drug-derived radioactivity recovered in carcass, % of dose” value is 40.4%; the “drug-derived radioactivity recovered in feces, % of dose” value is reported as 17.1%; the “radioactivity recovered in urine” value is 2.94%. In series [6], this molecule showed a half-life of 19 h. Further, the clearance in series [6] (read-out: CL (clearance)) was found to be 0.21 mL/min/kg.

caspofungin: in series [4], the “Tissue/plasma AUC ratio, kidney” value is listed as 5.5; the “Tissue/plasma AUC ratio, liver” value is on record as 10.2; the “Tissue/plasma AUC ratio, lung” value is reported as 1.2.

For micafungin, in series [4], the “Tissue/plasma AUC ratio, kidney” value is listed as 3.2; the “Tissue/plasma AUC ratio, liver” value is reported as 7.8; the “Tissue/plasma AUC ratio, lung” value is given as 3.6.
